From US20230278972A1, “SUBSTITUTED HALOALKYL SULFONANILIDE HERBICIDES” (FMC Corporation, priority 2020, published 2023)

Tests used:
Assay type in all cases: in vivo
[1] = test system: barnyardgrass (Echinochloa crus-galli); test: Test A preemergence, barnyardgrass; settings: Preemergence; for Plant response rating, Barnyardgrass: 0 to 100 scale (0 no effect, 100 complete control)
In short: (§1)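 Compounds in non-phytotoxic solvent with surfactant. Soil: loam/sand. Preemergence via directed soil spray after seeding; postemergence on seedlings 2–10 cm, one- to two-leaf.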

corn (Zea mays) = test: Test A postemergence, corn; settings: Postemergence, 0 to 100 scale (0 no effect, 100 complete control)
In short: as §1

[2] = test system: Foxtail, Giant (giant foxtail, Setaria faberi); test: Test A preemergence, Foxtail, Giant; settings: Preemergence; for Plant response rating, Foxtail, Giant: 0 to 100 scale (0 no effect, 100 complete control); for Foxtail, Giant plant response rating: 125 g ai/ha, visual injury on 0 to 100 scale (0 no effect, 100 complete control), approximately 10 days
In short: as §1

kochia (Bassia scoparia) [3] = test: Test A preemergence, kochia; settings: Preemergence; for Plant response rating, Kochia: 0 to 100 scale (0 no effect, 100 complete control); for Kochia plant response rating: 125 g ai/ha, visual injury on 0 to 100 scale (0 no effect, 100 complete control), approximately 10 days
In short: as §1

[4] = test system: Ryegrass, Italian (Italian ryegrass, Lolium multiflorum); test: Test A postemergence, Ryegrass, Italian; settings: Postemergence, 0 to 100 scale (0 no effect, 100 complete control)
In short: as §1

[5] = test system: ragweed (common ragweed, Ambrosia artemisiifolia); test: Test A postemergence, ragweed; settings: Postemergence, 0 to 100 scale (0 no effect, 100 complete control)
In short: as §1

[6] = test system: pigweed (Amaranthus retroflexus); test: Test A postemergence, pigweed; settings: Postemergence, 0 to 100 scale (0 no effect, 100 complete control)
In short: as §1

[7] = test system: barnyardgrass (Echinochloa crus-galli); test: Test A postemergence, barnyardgrass; settings: Postemergence, 0 to 100 scale (0 no effect, 100 complete control)
In short: (§2)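 Preemergence: seeded pots of loam plus sand received a directed soil spray. Postemergence: seedlings at one to two leaves, 2 to 10 cm high, were oversprayed. Each compound was formulated in a non-phytotoxic solvent mix that included a surfactant.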

[8] = test system: Foxtail, Giant (giant foxtail, Setaria faberi); test: Test A postemergence, Foxtail, Giant; settings: Postemergence, 0 to 100 scale (0 no effect, 100 complete control)
In short: as §1

[9] = test system: galium (catchweed bedstraw, Galium aparine); test: Test A postemergence, galium; settings: Postemergence, 0 to 100 scale (0 no effect, 100 complete control)
In short: as §2

kochia (Bassia scoparia) [10] = test: Test A postemergence, kochia; settings: Postemergence, 0 to 100 scale (0 no effect, 100 complete control)
In short: as §1

[11] = test system: Ryegrass, Italian (Italian ryegrass, Lolium multiflorum); test: Test A preemergence, Ryegrass, Italian; settings: Preemergence; for Plant response rating, Ryegrass, Italian: 0 to 100 scale (0 no effect, 100 complete control); for Ryegrass, Italian plant response rating: 125 g ai/ha, visual injury on 0 to 100 scale (0 no effect, 100 complete control), approximately 10 days
In short: as §1

[12] = test system: wheat (Triticum aestivum); test: Test A postemergence, wheat; settings: Postemergence, 0 to 100 scale (0 no effect, 100 complete control)
In short: as §2

[13] = test system: pigweed (Amaranthus retroflexus); test: Test A preemergence, pigweed; settings: for Plant response rating, Pigweed: 0 to 100 scale (0 no effect, 100 complete control); for Pigweed plant response rating: 125 g ai/ha, visual injury on 0 to 100 scale (0 no effect, 100 complete control), approximately 10 days
From the text: Seeds of plant species selected from barnyardgrass (Echinochloa crus-galli), kochia (Bassia scoparia), ragweed (common ragweed, Ambrosia artemisiifolia), Ryegrass, Italian (Italian ryegrass, Lolium multiflorum), Foxtail, Giant (giant foxtail, Setaria faberi), and pigweed (Amaranthus retroflexus) were planted into a blend of loam soil and sand and treated preemergence with a directed soil spray using test chemicals formulated in a non-phytotoxic solvent mixture which included a surfactant. At the same time, plants selected from these weed species and also wheat (Triticum aestivum), corn (Zea mays), blackgrass (Alopecurus myosuroides), and galium (catchweed bedstraw, Galium aparine) were planted in pots containing the same blend of loam soil and sand and treated with postemergence applications of test chemicals formulated in the same manner. Plants ranged in height from 2 to 10 cm and were in the one- to two-leaf stage for the postemergence treatment. […] A dash (-) response means no test result.

[14] = test system: blackgrass (Alopecurus myosuroides); test: Test A postemergence, blackgrass; settings: Postemergence, 0 to 100 scale (0 no effect, 100 complete control)
In short: as §1

[15] = 1000 g ai/ha, visual injury, approx. 10 days
[16] = 125 g ai/ha, visual injury approx. 10 days
[17] = 500 g ai/ha, visual injury, approx. 10 days

Row | Compound | Plant response rating, Barnyardgrass ([1]; 500 g ai/ha) | Plant response rating, Corn (corn (Zea mays); [16]) | Plant response rating, Corn (corn (Zea mays); [17]) | Foxtail, Giant plant response rating [2] | Plant response rating, Foxtail, Giant ([2]; 500 g ai/ha) | Kochia plant response rating (kochia (Bassia scoparia) [3]) | Plant response rating, Kochia (kochia (Bassia scoparia) [3]; 500 g ai/ha) | Plant response rating, Ryegrass, Italian [4, 16] | Plant response rating, Ryegrass, Italian [4, 17] | Plant response rating, Ragweed [5, 16] | Plant response rating, Ragweed [5, 17] | Plant response rating, Pigweed [6, 16] | Plant response rating, Pigweed [6, 17] | Plant response rating, Barnyardgrass [7, 16] | Plant response rating, Barnyardgrass [7, 17] | Plant response rating, Foxtail, Giant [8, 16] | Plant response rating, Foxtail, Giant [8, 17] | Plant response rating, Galium [9, 16] | Plant response rating, Galium [9, 17] | Plant response rating, Kochia (kochia (Bassia scoparia) [10]; [16]) | further results
1 | Cc1cc(C)c(N(S(=O)(=O)C(F)(F)F)S(=O)(=O)C(F)(F)F)cc1C(=O)N1CCSCC1 [Compound 5] |  |  |  |  |  |  |  |  |  |  |  |  |  |  |  |  |  |  |  |  | Plant response rating, Barnyardgrass ([1]; 1000 g ai/ha): 100; Plant response rating, Corn (corn (Zea mays); [15]): 10; Plant response rating, Foxtail, Giant ([2]; 1000 g ai/ha): 100; Plant response rating, Kochia (kochia (Bassia scoparia) [3]; 1000 g ai/ha): 90; Plant response rating, Ryegrass, Italian [4, 15]: 30; Plant response rating, Ragweed [5, 15]: 80; Plant response rating, Pigweed [6, 15]: 80; Plant response rating, Barnyardgrass [7, 15]: 80; Plant response rating, Foxtail, Giant [8, 15]: 90; Plant response rating, Galium [9, 15]: 90; Plant response rating, Kochia (kochia (Bassia scoparia) [10]; [15]): 80; Plant response rating, Ryegrass, Italian ([11]; 1000 g ai/ha): 100; Plant response rating, Wheat [12, 15]: 60; Plant response rating, Pigweed ([13]; 1000 g ai/ha): 100; Plant response rating, Blackgrass [14, 15]: 0
2 | CCN(CC)C(=O)c1cc(NS(=O)(=O)C(F)(F)F)c(Cl)cc1C [Compound 21] | 100 | 0 | 30 | 20 | 100 | 0 | 0 | 0 | 50 | 50 | 90 | 0 | 40 | 20 | 40 | 0 | 20 | 50 | 60 | 10 | Barnyardgrass plant response rating ([1]; 125 g ai/ha, visual injury on 0 to 100 scale (0 no effect, 100 complete control), approximately 10 days): 80; Plant response rating, Kochia (kochia (Bassia scoparia) [10]; [17]): 30; Ryegrass, Italian plant response rating [11]: 30; Plant response rating, Ryegrass, Italian ([11]; 500 g ai/ha): 100; Plant response rating, Wheat [12, 16]: 0; Plant response rating, Wheat [12, 17]: 30; Pigweed plant response rating [13]: 40; Plant response rating, Pigweed ([13]; 500 g ai/ha): 60; Plant response rating, Blackgrass [14, 16]: 10; Plant response rating, Blackgrass [14, 17]: 10
3 | Cc1cc(Br)c(NS(=O)(=O)C(F)(F)F)cc1C(=O)N1CCOCC1 [Compound 14] | 90 | 0 | 20 | 70 | 80 | 70 | 90 | 0 | 30 | 60 | 70 | 60 | 90 | 40 | 80 | 40 | 70 | 70 | 80 | 40 | Plant response rating, Kochia (kochia (Bassia scoparia) [10]; [17]): 70; Ryegrass, Italian plant response rating [11]: 60; Plant response rating, Ryegrass, Italian ([11]; 500 g ai/ha): 100; Plant response rating, Wheat [12, 16]: 30; Plant response rating, Wheat [12, 17]: 70; Pigweed plant response rating [13]: 80; Plant response rating, Pigweed ([13]; 500 g ai/ha): 90; Plant response rating, Blackgrass [14, 16]: 10; Plant response rating, Blackgrass [14, 17]: 40
